According to patent US20060035884A1, “N-cyclic sulfonamido inhibitors of gamma secretase” (Elan Pharmaceuticals, Inc., priority 2004, published 2006):

test system: gamma secretase cleavage of NotchδE (constitutively active rat Notch1 construct ZEDN1); assay: Notch signaling reporter gene assay (4xwtCBF1 Luciferase co-transfected with NotchδE) for selective inhibitors of gamma secretase; format: cell-based; conditions: assay not given, it follows the Notch signaling assay section
Excerpt: Due to the importance of Notch signaling in cell fate determination, and tissue differentiation during both development and in the adult, inhibition of Notch signaling by gamma secretase inhibitors is postulated to be a limiting factor in their therapeutic utility. […] Lindsell, O. Bogler, D. Hayward and G. Weinmaster (1996). “Notch signaling inhibits muscle cell differentiation through a CBF1-independent pathway.” Development 122(12): 3765-73 in combination with the CBF1 repressible Luciferase reporter gene 4xwtCBF1Luc (Hsieh, J. J., T. Henkel, P. Salmon, E. Robey, M. G. Peterson and S. D. Hayward (1996). “Truncated mammalian Notch1 activates CBF1/RBPJk-repressed genes by a mechanism resembling that of Epstein-Barr virus EBNA2. ” Mol Cell Biol 16(3): 952-9).
When 4xwtCBF1 Luciferase is co-transfected with NotchδE (ZEDN1), gamma-secretase cleavage of NotchδE releases the Notch intracellular domain (NICD), which translocates to the nucleus and de-represses CBF1 mediated transcriptional repression, leading to transcription of the Luciferase reporter gene. Luciferase activity is easily assayed in cell extracts using commercially available kits. The activity of the reporter gene is directly correlated with gamma secretase cleavage of NotchδE, and as such, a reduction in Luciferase activity provides a convenient measure of inhibition of gamma secretase cleavage of NotchδE.

SMILES | IC50 [nM]
O=S(=O)(c1ccc(Cl)cc1)N1CCCCCC1 [Compound 43, 1-(4-Chloro-benzenesulfonyl)-azepane] | 1000 to 10000
CCCCNC(=O)[C@H]1CSC(c2ccc(OC)c(OC)c2)N1S(=O)(=O)c1ccc(Cl)cc1 (stereo partly drawn) [Compound 139, (4S)-N-butyl-3-[(4-chlorophenyl)sulfonyl]-2-(3,4-dimethoxyphenyl)-1,3-thiazolidine-4-carboxamide] | > 10000
O=S(=O)(c1ccc(Cl)cc1)N1CCC(Br)CC1 [Compound 56, 4-Bromo-1-(4-chloro-benzenesulfonyl)-piperidine] | > 10000
CCC1CCCCN1S(=O)(=O)c1ccc(Cl)cc1 (stereo not shown) [Compound 46, 1-(4-Chloro-benzenesulfonyl)-2-ethyl-piperidine] | 100 to 1000
CC1CCCN(S(=O)(=O)c2ccc(Cl)cc2)C1 (stereo not shown) [Compound 54, 1-(4-Chloro-benzenesulfonyl)-3-methyl-piperidine] | 1000 to 10000
O=S(=O)(c1ccc(Cl)cc1)N1CCCC2CCCCC21 (stereo not shown) [Compound 9, 1-(4-Chloro-benzenesulfonyl)-decahydro-quinoline] | 1000 to 10000
CC1C=CC(C)N1S(=O)(=O)c1ccc(Cl)cc1 (stereo not shown) [Compound 149, 1-(4-Chloro-benzenesulfonyl)-2,5-dimethyl-2,5-dihydro-1H-pyrrole] | 1000 to 10000
CC1(c2ccccc2)CCCN(S(=O)(=O)c2ccc(Cl)cc2)C1 (stereo not shown) [Compound 74, 1-(4-Chloro-benzenesulfonyl)-3-methyl-3-phenyl-piperidine] | > 10000
C[C@@H]1CCC[C@H](C)N1S(=O)(=O)c1ccc(Cl)cc1 [Compound 45, (2R,6S)-1-[(4-chlorophenyl)sulfonyl]-2,6-dimethylpiperidine] | 100 to 1000
CC1CC(C)CN(S(=O)(=O)c2ccc(Cl)cc2)C1 (stereo not shown) [Compound 51, 1-(4-Chloro-benzenesulfonyl)-3,5-dimethyl-piperidine] | 1000 to 10000
O=C(NCc1ccccc1)C1Cc2ccccc2N1S(=O)(=O)c1ccc(Cl)cc1 (stereo not shown) [Compound 12, 1-(4-Chloro-benzenesulfonyl)-2,3-dihydro-1H-indole-2-carboxylic acid benzylamide] | 1000 to 10000
CCOC(=O)C1CCCN(S(=O)(=O)c2ccc(Cl)cc2)C1 (stereo not shown) [Compound 65, 1-(4-Chloro-benzenesulfonyl)-piperidine-3-carboxylic acid ethyl ester] | > 10000
CC1CCCCN1S(=O)(=O)c1ccc(Cl)cc1 (stereo not shown) [Compound 48, 1-(4-Chloro-benzenesulfonyl)-2-methyl-piperidine] | 1000 to 10000
O=C(Nc1ccccc1)C1Cc2ccccc2N1S(=O)(=O)c1ccc(Cl)cc1 (stereo not shown) [Compound 2, 1-(4-Chloro-benzenesulfonyl)-2,3-dihydro-1H-indole-2-carboxylic acid phenylamide] | 1000 to 10000
CC1CCCC(C)N1S(=O)(=O)c1ccc(Cl)cc1 (stereo not shown) [Compound 47, 1-(4-Chloro-benzenesulfonyl)-2,6-dimethyl-piperidine] | 100 to 1000
O=S(=O)(c1ccc(Cl)cc1)N1CCCCC1c1cccnc1 (stereo not shown) [Compound 1, 1-(4-Chloro-benzenesulfonyl)-1,2,3,4,5,6-hexahydro-[2,3′]bipyridinyl] | 1000 to 10000
O=S(=O)(c1ccc(Cl)cc1)N1CCCN2CCCN=C21 [Compound 138, 1-(4-Chloro-benzenesulfonyl)-1,3,4,6,7,8-hexahydro-2H-pyrimido[1,2-a]pyrimidine] | > 10000
CC1CCC(C)N1S(=O)(=O)c1ccc(Cl)cc1 (stereo not shown) [Compound 124, 1-(4-Chloro-benzenesulfonyl)-2,5-dimethyl-pyrrolidine] | 1000 to 10000
CC1CCc2cc(F)ccc2N1S(=O)(=O)c1ccc(Cl)cc1 (stereo not shown) [Compound 13, 1-(4-Chloro-benzenesulfonyl)-6-fluoro-2-methyl-1,2,3,4-tetrahydro-quinoline] | 1000 to 10000
